Measured values from ChEMBL document CHEMBL4043249, “Discovery of potent antiviral (HSV-1) quinazolinones and initial structure-activity relationship studies” (Bioorg Med Chem Lett, 2017).
Activity calls are given as the source filed them. No cut-off for these calls is given here.

Columns and labels:
Human alphaherpesvirus 1 [1] = assay: Anti-viral activity against Herpes simplex virus-1 harboring EGFP infected in iPSC-derived neurons assessed as reduction in ICP0 expression at 10 to 50 uM treated 2 hrs post infection measured after 72 hrs by Alexa fluor 488 staining based flow cytometric analysis; format: functional
[2] = Cytotoxicity against human induced pluripotent stem cell-derived neurons assessed as morphological changes after 48 to 72 hrs by live/dead fixable aqua dead cell staining based assay; settings: induced pluripotent stem cell-derived neuron
[3] = Cytotoxicity against human induced pluripotent stem cell-derived neurons assessed as effect on cell viability after 24 hrs by live/dead fixable aqua dead cell staining based assay; settings: induced pluripotent stem cell-derived neuron
Human alphaherpesvirus 1 [4] = assay: Anti-viral activity against Herpes simplex virus-1 harboring EGFP infected in iPSC-derived neurons assessed as reduction in ICP0 expression treated 2 hrs post infection measured after 72 hrs by Alexa fluor 488 staining based flow cytometric analysis; format: functional
Human alphaherpesvirus 1 [5] = assay: Anti-viral activity against Herpes simplex virus-1 harboring EGFP infected in iPSC-derived neurons assessed as reduction in ICP0 expression at 50 uM treated 2 hrs post infection measured after 72 hrs by Alexa fluor 488 staining based flow cytometric analysis; format: functional
Human alphaherpesvirus 1 [6] = assay: Anti-viral activity against Herpes simplex virus-1 harboring EGFP infected in iPSC-derived neurons assessed as necrotic cells at 50 mM treated 2 hrs post infection measured after 72 hrs by Alexa fluor 488 staining based flow cytometric analysis (reference value: 3.33%); format: functional
Human alphaherpesvirus 1 [7] = assay: Anti-viral activity against Herpes simplex virus-1 harboring EGFP infected in iPSC-derived neurons assessed as early apoptotic cells at 10 mM treated 2 hrs post infection measured after 72 hrs by Alexa fluor 488 staining based flow cytometric analysis (reference value: 13.2%); format: functional
Human alphaherpesvirus 1 [8] = assay: Anti-viral activity against Herpes simplex virus-1 harboring EGFP infected in iPSC-derived neurons assessed as viable cells at 50 mM treated 2 hrs post infection measured after 72 hrs by Alexa fluor 488 staining based flow cytometric analysis (reference value: 17.8%); format: functional
Human alphaherpesvirus 1 [9] = assay: Anti-viral activity against Herpes simplex virus-1 harboring EGFP infected in iPSC-derived neurons assessed as early apoptotic cells at 50 mM treated 2 hrs post infection measured after 72 hrs by Alexa fluor 488 staining based flow cytometric analysis (reference value: 13.2%); format: functional
Human alphaherpesvirus 1 [10] = assay: Anti-viral activity against Herpes simplex virus-1 harboring EGFP infected in iPSC-derived neurons assessed as late apoptotic cells at 50 mM treated 2 hrs post infection measured after 72 hrs by Alexa fluor 488 staining based flow cytometric analysis (reference value: 65.7%); format: functional
Human alphaherpesvirus 1 [11] = assay: Anti-viral activity against Herpes simplex virus-1 harboring EGFP infected in iPSC-derived neurons assessed as viable cells at 10 mM treated 2 hrs post infection measured after 72 hrs by Alexa fluor 488 staining based flow cytometric analysis (reference value: 17.8%); format: functional
Human alphaherpesvirus 1 [12] = assay: Anti-viral activity against Herpes simplex virus-1 harboring EGFP infected in iPSC-derived neurons assessed as late apoptotic cells at 10 mM treated 2 hrs post infection measured after 72 hrs by Alexa fluor 488 staining based flow cytometric analysis (reference value: 65.7%); format: functional
Human alphaherpesvirus 1 [13] = assay: Anti-viral activity against Herpes simplex virus-1 harboring EGFP infected in iPSC-derived neurons assessed as necrotic cells at 10 mM treated 2 hrs post infection measured after 72 hrs by Alexa fluor 488 staining based flow cytometric analysis (reference value: 3.33%); format: functional
Human alphaherpesvirus 1 [14] = assay: Anti-viral activity against Herpes simplex virus-1 harboring EGFP infected in iPSC-derived neurons assessed as reduction in ICP0 expression at 10 uM treated 2 hrs post infection measured after 72 hrs by Alexa fluor 488 staining based flow cytometric analysis; format: functional
[15] = Induction of heterochromatinization in Induced pluripotent stem cell-derived neuron (unknown origin) infected with HSV-1 assessed as increase in H3K27 trimethylation at ICP4 gene by chromatin immunoprecipitation based RT-PCR analysis
Vero = assay: Cytotoxicity against African green monkey Vero cells assessed as effect on cell viability at 10 to 1000000 nM; format: cell-based; settings: chlorocebus sabaeus, 1000 µM
Neuron = assay: Cytotoxicity against neurons (unknown origin) assessed as effect on cell viability at 10 to 1000000 nM; format: cell-based; settings: 1000 µM
NSC = assay: Cytotoxicity against NSC (unknown origin) assessed as effect on cell viability at 10 to 1000000 nM; format: cell-based; settings: 1000 µM

For `O=c1c2ccccc2nc(-c2ccc(OCc3cccc(Br)c3)cc2)n1-c1ccc(Br)cc1`, the Activity (Human alphaherpesvirus 1 [1]) was “Active”.
For `O=c1c2ccccc2nc(-c2ccc(OCc3ccc(Br)cc3)cc2)n1-c1ccc(Br)cc1`, the Activity (Human alphaherpesvirus 1 [1]) was “Active”.
With `COc1ccc(-n2c(-c3ccc(Oc4ccc(OC(F)(F)F)cc4)cc3)nc3ccccc3c2=O)cc1` the Activity (Human alphaherpesvirus 1 [1]) was “inactive”.
In the case of `COc1ccc(Oc2ccc(-c3nc4ccccc4c(=O)n3-c3ccc(OC)cc3)cc2)cc1`, the Activity (Human alphaherpesvirus 1 [1]) is reported as “inactive”.
In the case of `COc1ccc(-n2c(-c3ccc(Oc4ccccc4)cc3)nc3ccccc3c2=O)cc1`, the Activity (Human alphaherpesvirus 1 [1]) is reported as “inactive”.
In the case of `COc1ccc(-n2c(-c3ccc(OCc4ccccc4)cc3)nc3ccccc3c2=O)cc1`, the Activity [2] is reported as “Toxic”, the Activity [3] is reported as “Toxic” and the Activity (Human alphaherpesvirus 1 [4]) is reported as “Active”. For the same molecule, the Activity (Human alphaherpesvirus 1 [5]) was “Active”.
For `CCCCCCn1c(-c2ccc(OCc3ccccc3)cc2)nc2ccccc2c1=O`, the Activity (Human alphaherpesvirus 1 [4]) was “inactive”.
For `COc1ccc(-n2c(-c3ccc(Nc4ccccc4)cc3)nc3ccccc3c2=O)cc1`, the Activity (Human alphaherpesvirus 1 [1]) was “inactive”.
Molecule `Nc1nc2c(ncn2COCCO)c(=O)[nH]1` [ACYCLOVIR] has an Activity (Human alphaherpesvirus 1 [6]) of 0.76%, an Activity (Human alphaherpesvirus 1 [7]) of 7.92% and an Activity (Human alphaherpesvirus 1 [8]) of 92.6%. The Activity (Human alphaherpesvirus 1 [9]) was 6.22%, the Activity (Human alphaherpesvirus 1 [10]) was 0.44% and the Activity (Human alphaherpesvirus 1 [11]) was 89.6%. For the same molecule, the Activity (Human alphaherpesvirus 1 [12]) was 1.36% and the Activity (Human alphaherpesvirus 1 [13]) was 1.13%.
In the case of `O=c1c2ccccc2nc(-c2ccc(Br)cc2)n1-c1ccc(Br)cc1`, the Activity (Human alphaherpesvirus 1 [4]) is reported as “Active”.
In the case of `COc1ccc(-n2c(-c3ccc(Oc4ccc(Cl)cc4)cc3)nc3ccccc3c2=O)cc1`, the Activity (Human alphaherpesvirus 1 [1]) is reported as “inactive”.
In the case of `COc1ccc(-c2nc3ccccc3c(=O)n2-c2ccc(Br)cc2)cc1`, the Activity (Human alphaherpesvirus 1 [4]) is reported as “Active”.
With `O=c1c2ccccc2nc(-c2ccc(OCc3ccccc3)cc2)n1-c1ccc(Br)cc1` the Activity [2] was “Toxic”, the Activity [3] was “Toxic” and the Activity (Human alphaherpesvirus 1 [4]) was “Active”. For the same molecule, the Activity (Human alphaherpesvirus 1 [14]) was “Active”, the Activity [15] was “Non-Toxic” and the Activity (Human alphaherpesvirus 1 [5]) was “Active”.
For `COc1ccc(-n2c(-c3ccc(OCc4ccc(Br)cc4)cc3)nc3ccccc3c2=O)cc1`, the Activity (Human alphaherpesvirus 1 [6]) was 2.91%, the Activity (Human alphaherpesvirus 1 [7]) was 3.18% and the Activity (Human alphaherpesvirus 1 [1]) was “Active”. For the same molecule, the Activity (Vero) was “Toxic”, the Activity (Human alphaherpesvirus 1 [8]) was 88.9% and the Activity (Human alphaherpesvirus 1 [9]) was 3.36%. The Activity (Neuron) was “Toxic”, the Activity (Human alphaherpesvirus 1 [10]) was 5.03% and the Activity (Human alphaherpesvirus 1 [11]) was 91.6%. For the same molecule, the Activity (Human alphaherpesvirus 1 [12]) was 4.64%, the Activity (NSC) was “Toxic” and the Activity (Human alphaherpesvirus 1 [13]) was 0.6%.
With `O=c1[nH]c(-c2ccc(OCc3ccccc3)cc2)nc2ccccc12` the Activity (Human alphaherpesvirus 1 [4]) was “inactive”.
For `COc1ccc(-n2c(-c3ccc(OCc4cccc(Br)c4)cc3)nc3ccccc3c2=O)cc1`, the Activity (Human alphaherpesvirus 1 [6]) was 4.31%, the Activity (Human alphaherpesvirus 1 [7]) was 3.24% and the Activity (Human alphaherpesvirus 1 [1]) was “Active”. For the same molecule, the Activity (Vero) was “Toxic”, the Activity (Human alphaherpesvirus 1 [8]) was 82% and the Activity (Human alphaherpesvirus 1 [9]) was 3.76%. For the same molecule, the Activity (Neuron) was “Toxic”, the Activity (Human alphaherpesvirus 1 [10]) was 9.96% and the Activity (Human alphaherpesvirus 1 [11]) was 90.1%. For the same molecule, the Activity (Human alphaherpesvirus 1 [12]) was 6.1%, the Activity (NSC) was “Toxic” and the Activity (Human alphaherpesvirus 1 [13]) was 0.59%.
